Legend:
[1] = molecular target: T1, full-length human CHK1 (FL-CHK1) (Homo sapiens, UniProt O14757); assay: FL-CHK1 assay (coupled spectrophotometric, Syntide-2); type: biochemical; settings: FL-CHK1, 0.15 mM ATP
T1 construct: C-terminally His-tagged full-length human CHK1 (FL-CHK1); 6xHis (C); made in house
T1 sequence (O14757 1-476): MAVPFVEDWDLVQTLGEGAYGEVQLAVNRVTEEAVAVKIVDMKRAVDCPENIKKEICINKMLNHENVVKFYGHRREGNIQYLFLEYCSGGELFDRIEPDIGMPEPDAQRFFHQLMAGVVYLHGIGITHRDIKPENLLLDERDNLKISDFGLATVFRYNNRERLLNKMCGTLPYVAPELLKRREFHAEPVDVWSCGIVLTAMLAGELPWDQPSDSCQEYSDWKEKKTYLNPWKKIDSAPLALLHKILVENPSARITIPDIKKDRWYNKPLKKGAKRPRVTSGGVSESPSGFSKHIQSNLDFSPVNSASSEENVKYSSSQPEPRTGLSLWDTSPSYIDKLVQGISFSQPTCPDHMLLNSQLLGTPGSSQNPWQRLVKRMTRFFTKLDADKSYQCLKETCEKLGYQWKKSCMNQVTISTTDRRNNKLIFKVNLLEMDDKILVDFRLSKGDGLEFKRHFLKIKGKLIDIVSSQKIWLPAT
Text: C-terminally His-tagged full-length human CHK1 (FL-CHK1) was expressed using the baculovirus/insect cell system. It contains 6 histidine residues (6 x His-tag) at the C-terminus of the 476 amino acid human CHK1. The protein was purified by conventional chromatographic techniques.
The production of ADP from ATP that accompanies phosphoryl transfer to the synthetic substrate peptide Syntide-2 (PLARTLSVAGLPGKK) was coupled to oxidation of NADH using phosphoenolpyruvate (PEP) through the actions of pyruvate kinase (PK) and lactic dehydrogenase (LDH). The oxidation of NADH was monitored by following the decrease of absorbance at 340 nm (ε340=6.22 cm^−1 mM^−1) using a HP8452 spectrophotometer. Typical reaction solutions contained: […] PEP; 0.15 mM NADH; 28 units of LDH/mL; 16 units of PK/mL; 3 mM DTT; 0.125 mM Syntide-2; 0.15 mM ATP; 25 mM MgCl2 in 50 mM TRIS, pH 7.5; and 400 mM NaCl. Assays were initiated with 10 nM of FL-CHK1. Ki values were determined by measuring initial enzyme activity in the presence of varying concentrations of test compounds. The data were analyzed using Enzyme Kinetic and Kaleidagraph software. […]

CA-46 (lymphoma) cells = assay: Whole cell checkpoint abrogation assay (CHK1 Mitotic Index ELISA); type: cell-based; settings: for EC50: concentration causing 50% abrogation of the checkpoint, camptothecin + Nocodazole
Description: To examine the in vitro effects of CHK1 inhibitory compounds, an ELISA assay can be designed to monitor the abrogation of DNA damage-induced checkpoint control. The assay can be based on the trapping and detection of mitotic cells following DNA damage-induced arrest.
CA-46 (lymphoma) cells can be treated with a DNA damaging agent, such as camptothecin (Sigma), at 50 nM for 8 hours to induce DNA damage. The control compound or CHK1 inhibitor can be then added at increasing concentrations with Nocodazole (Sigma) at 0.1 μg/ml and plates can be incubated for 16 hours. Control cells, where only CHK1 inhibitors can be added, can be prepared as well to assure that the inhibitors alone have no effect on the cell cycle. The cells can be then harvested, washed with PBS, and crude acid extraction can be performed. Pellets can be resuspended in 80 μl of Acid Extraction Buffer (10 mM Hepes pH 7.9, 1.5 mM MgCl2, 10 mM KCl, 0.5 mM DTT, 1.5 mM PMSF, 0.4N sulfuric acid), vortexed briefly, and incubated for 30 minutes on ice. Samples can be then centrifuged and 75 μl of the supernatant can be transferred to a 96 well flat-bottom plate (VWR 3596). Next 15 μl Neutralizing Cocktail (# of samples×(10 μl 10N NaOH+5 μl 1M Tris Base) can be added to each well, and after mixing, 5 μl of this can be transferred to another 96 well plate with 100 μl 50 mM Tris base (pH 9.6) in each well. Samples can be dried overnight. The wells can be then washed with 200 μl ELISA wash buffer (PBS with 20 mM Tris pH 7.5, 0.05% Tween 20) 5 times and blocked with 200 μl blocking buffer (PBS with 20 mM Tris pH 7.5, 0.05% Tween 20, 3.5% Dry milk, 1.5% BSA. pH to 7.5 after preparation) for 1 hour at room temperature. Following wash and block, anti-phospho Histone H3 antibodies (Upstate USA, Inc., rabbit polyclonal) can be added at 0.5 μg/ml in block (100 μl per well) and incubated for 2 hours at room temperature. Wells can be washed again to remove unbound primary antibody and 100 μl alkaline phosphatase conjugated secondary antibodies at 0.3 mg/ml (Pierce, goat anti-rabbit IgG ([…]+L)) in block can be added for 1 hour at room temp. Wells can be washed 5 times to remove unbound secondary antibody, and washed again 3 times with PBS alone to remove detergents. Then 100 μl alkaline phosphatase substrate (Pierce 1-Step pNPP) can be added to wells. Plates can be protected from light and incubated at room temp for 1 hour. The OD can be read on Molecular Devices Vmax Kinetic Microplate Reader at 405 nm. The ratio of the OD (optical density) of a compound treated sample to the Nocodazole only treated sample (about 100% mitotic or abrogation) can be expressed in a percentage, and quantifies the percent abrogation of the checkpoint. The concentration at which a compound causes 50% abrogation of the checkpoint can be called the EC50. The raw OD values can be graphed in Excel, and an EC50 value can be generated using Kaleidograph software. Strong signal results from Nocodazole only treated cells, and equals 100% mitosis in this assay. Camptothecin+Nocodazole treated control samples have low signal, signifying no mitosis and therefore, no checkpoint abrogation. When potent CHK1 inhibitors are added to Camptothecin treated cells with Nocodazole, a high signal can be generated (generally in a dose dependent manner), due to the checkpoint abrogation activity caused by the combination treatment.

Row | Ki [1] [nM] | EC50 (CA-46 (lymphoma) cells) [nM] | SMILES | percent abrogation of the checkpoint (CA-46 (lymphoma) cells; @ 0.5 μM) [% @ 0.5 μM] | other results
1 | 1 to 10 | – | N#Cc1cccc(Nc2cc(-c3ccc(-c4ccc(O)cc4O)cc3)n[nH]2)c1 [Example 1, 3-{[3-(2′,4′-Dihydroxy-1,1′-biphenyl-4-yl)-1H-pyrazol-5-yl]amino}benzonitrile] | 7 | –
2 | – | 900 | Oc1ccc(-c2ccc(-c3cc(Nc4cccc(CNC5CC5)c4)n[nH]3)cc2)c(O)c1 [Example 3, 4′-[5-(3-Cyclopropylaminomethyl-phenylamino)-2H-pyrazol-3-yl]-biphenyl-2,4-diol acetate] | – | –
3 | – | 60 | Oc1ccc(-c2ccc(-c3cc(Nc4ccc(CNC5CC5)cc4)n[nH]3)cc2)c(O)c1 [Example 4, 4′-[5-(4-Cyclopropylaminomethyl-phenylamino)-2H-pyrazol-3-yl]-biphenyl-2,4-diol acetate] | – | –
4 | – | 75 | Oc1ccc(-c2ccc(-c3cc(Nc4ccc(CNCC5CC5)cc4)n[nH]3)cc2)c(O)c1 [Example 10, 4′-[5-(4-Cyclopropylmethylaminomethyl-phenylamino)-2H-pyrazol-3-yl-]-biphenyl-2,4-diol acetate] | – | –
5 | 1 to 10 | – | Oc1ccc(-c2ccc(-c3cc(Nc4ncccn4)n[nH]3)cc2)c(O)c1 [Example 11, N-[3-(2′,4′-dihydoxy-1,1′-biphenyl-4-yl)-1H-pyrazol-5-yl]pyrimidin-2-amine] | – | –
6 | 1 to 10 | 380 | CN(C)Cc1ccc(Nc2cc(-c3ccc(-c4ccc(O)cc4O)cc3)[nH]n2)cn1 [Example 15, 4′-[5-({6-[(dimethylamino)methyl]pyridin-3-yl}amino)-1H-pyrazol-3-yl]-1,1′-biphenyl-2,4-diol] | – | –
7 | – | 540 | Oc1ccc(-c2ccc(-c3cc(Nc4cccnc4)[nH]n3)cc2)c(O)c1 [Example 18, N-[5-(2′,4′-Dihydroxy-1,1′-biphenyl-4-yl)-1H-pyrazol-3-yl]pyridin-3-amine] | – | –
8 | 1 to 10 | – | Oc1ccc(-c2ccc(-c3cc(Nc4ccncc4)[nH]n3)cc2)c(O)c1 [Example 19, 4′-[5-(pyridin-4-ylamino)-1H-pyrazol-3-yl]-1,1′-biphenyl-2,4-diol] | 14 | –
9 | – | 500 | Oc1ccc(-c2ccc(-c3cc(Nc4ccccc4)n[nH]3)cc2)c(O)c1 [Example 21, 4′-(3-anilino-1H-pyrazol-5-yl)-1,1′-biphenyl-2,4-diol] | – | –
10 | – | 60 | CCC(C)NCc1ccc(Nc2cc(-c3ccc(-c4ccc(O)cc4O)cc3)[nH]n2)cc1 (stereo not shown) [Example 22] | – | –
11 | – | 560 | CCNCc1ccc(Nc2cc(-c3ccc(-c4ccc(O)cc4O)cc3)[nH]n2)cn1 [Example 26, -[5-({6-[(ethylamino)methyl]pyridin-3-yl}amino)-1H-pyrazol-3-yl]-1,1′-biphenyl-2,4-diol] | – | –

The remaining lines, values behind:

Row | SMILES | Ki [1] [nM] | EC50 (CA-46 (lymphoma) cells) [nM] | percent abrogation of the checkpoint (CA-46 (lymphoma) cells; @ 0.5 μM) [% @ 0.5 μM] | other results
12 | N#Cc1ccc(Nc2cc(-c3ccc(-c4ccc(O)cc4O)cc3)n[nH]2)cc1 [Example 2, 4-{[3-(2′,4′-Dihydroxy-1,1′-biphenyl-4-yl)-1H-pyrazol-5-yl]amino}benzonitrile] | 1 to 10 | – | – | percent abrogation of the checkpoint (CA-46 (lymphoma) cells; @ 1 μM): 1% @ 1 μM
13 | Cc1cc(O)cc(O)c1-c1ccc(-c2cc(Nc3ccc(CNC(C)C)cc3)n[nH]2)cc1 [Example 7] | – | 380 | – | –
14 | Oc1cc(O)c(-c2ccc(-c3cc(Nc4ccc(CNC5CC5)cc4)n[nH]3)cc2)c(Cl)c1 [Example 8, 4′-[5-(4-Cyclopropylaminomethyl-phenylamino)-2H-pyrazol-3-yl]-biphenyl-6-chloro-2,4-diol acetate] | – | 150 | – | –
15 | Oc1cc(O)c(-c2ccc(-c3cc(Nc4ccc(CNC5CC5)cc4)n[nH]3)cc2)c(F)c1 [Example 9, 4′-[5-({4-[(cyclopropylamino)methyl]phenyl}amino)-1H-pyrazol-3-yl]-6-fluoro-1,1′-biphenyl-2,4-diol] | 1 to 10 | 88 | – | –
16 | OCc1ccc(Nc2cc(-c3ccc(-c4ccc(O)cc4O)cc3)[nH]n2)cn1 [Example 12, 4′-[5-(6-Hydroxymethyl-pyridin-3-ylamino)-2H-pyrazol-3-yl]-biphenyl-2,4-diol] | – | – | 5 | –
17 | OCc1cc(Nc2cc(-c3ccc(-c4ccc(O)cc4O)cc3)[nH]n2)ccn1 [Example 13, 4′-[5-(2-Hydroxymethyl-pyridin-4-ylamino)-2H-pyrazol-3-yl]-biphenyl-2,4-diol acetate] | – | – | 0 | –
18 | Oc1ccc(-c2ccc(-c3cc(Nc4ccc(CNC5CCCC5)nc4)n[nH]3)cc2)c(O)c1 [Example 14, 4′-[5-({6-[(cyclopentylamino)methyl]pyridin-3-yl}amino)-1H-pyrazol-3-yl]-1,1′-biphenyl-2,4-diol] | 1 to 10 | 160 | – | –
19 | CNC(=S)c1ccc(Nc2cc(-c3ccc(-c4ccc(O)cc4O)cc3)n[nH]2)cn1 [Example 16, 5-[5-(2′,4′-Dihydroxy-biphenyl-4-yl)-2H-Pyrazol-3-ylamino]-pyridine-2-carbothioic acid methylamide] | 1 to 10 | – | 10 | –
20 | Oc1ccc(-c2ccc(-c3cc(Nc4ccccn4)[nH]n3)cc2)c(O)c1 [Example 17, N-[5-(2′,4′-Dihydroxy-1,1′-biphenyl-4-yl)-1H-pyrazol-3-yl]pyridin-2-amine] | – | – | 16 | –
21 | Oc1ccc(-c2ccc(-c3cc(Nc4cncs4)[nH]n3)cc2)c(O)c1 [Example 20, 4′-[5-(1,3-thiazol-5-ylamino)-1H-pyrazol-3-yl]-1,1′-biphenyl-2,4-diol] | – | – | 10 | –
22 | Oc1ccc(-c2ccc(-c3cc(Nc4ccc(CNCC5CC5)nc4)[nH]n3)cc2)c(O)c1 [Example 23, 4′-{5-[(6-{[(cyclopropylmethyl)amino]methyl}pyridin-3-yl)amino]-1H-pyrazol-3-yl}-1,1′-biphenyl-2,4-diol] | 1 to 10 | 165 | – | –
23 | CC(C)NCc1ccc(Nc2cc(-c3ccc(-c4ccc(O)cc4O)cc3)n[nH]2)cn1 [Example 25, 4′-[5-({6-[(isopropylamino)methyl]pyridin-3-yl}amino)-1H-pyrazol-3-yl]-1,1′-biphenyl-2,4-diol] | – | 560 | – | –
